How the values were obtained:
mice = experiment: Acute toxicity after a single oral administration in mice (Miller & Tainter); format: in vivo; settings: 1000 mg/kg, 10 mice per lot, suspension of Tween 80 + distilled water
Method: (§1) (1) Toxicology (acute toxicity after a single oral administration in mice by the method of Miller & Tainter (Proc. Soc. Exper. Biol. Med., 1944, 57, 261)).
(§2) The products are administered in a suspension of Tween 80+distilled water. The mortality is noted at the end of 7 days. The following table summarizes the results obtained: […]

[1] = as above; format: in vivo; settings: mouse, in vivo, mice, mortality noted at the end of 7 days, read-out: LD50 approximate
Method: as §1, §2

Solubilities = format: physicochemical; settings: for Solubility in DMSO: DMSO / dimethyl sulfoxide
rats = experiment: Cutaneous passive anaphylaxis test; format: in vivo; settings: Rattus norvegicus, po; per os, 10 minutes before intravenous injection of antigen + stain; tested at 30, 5, 1 and 0.2 mg/kg, lots of 10 rats; suspension in Tween and water; read-out: ED50 (dose which reduces by one-half the leakage of the stain as compared with the controls)
Method: The results are obtained on the cutaneous passive anaphylaxis test in accordance with the method of Broeklehurst W. E. in Handbook of Experimental Immunology, Editor Weiz D. M., Blackwell Scientific Publications, Oxford and Edinborough, pages […] (1967).
(a) Prepare the antiserum on rats sensitized by antigen; inject it intradermally.
(b) Leave a waiting time of 24 to 48 hours.
(c) Administration of the product to be tested per os 10 minutes before operation (d) (intravenous simultaneously with d).
(d) Intravenous injection of the antigen+stain.
(e) Sacrifice 30 minutes afterwards and visualize the antigen-antibody reaction by the leakage of the stain due to the increase of the capillary permeability under the combined influence of histamine and SRSA.
This action is expressed as ED50, i.e., the dose which reduces by one-half the leakage of the stain as compared with the controls.
The tests were carried out in succession with 30, 5, 1 and 0.2 mg/kg on homogeneous lots of 10 rats, with due consideration of their insolubility in water. These compounds are administered in suspension in Tween™ and water.

Solubility in ethanol (Solubilities; ethanol) | SMILES | Mortality at end of 7th day (mice) | LD50 at 168 h [1] | Solubility in dimethyl acetamid (Solubilities; dimethyl acetamid) | Solubility in ethanol (in words) (Solubilities; ethanol) | Solubility in methyl pyrrolidone (Solubilities) | Solubility in water (Solubilities) | ED50 (rats) | Solubility in DMSO (Solubilities)
– | O=C(Nc1nc(-c2ccccc2Br)cs1)C(=O)OCc1ccccc1 [Example 5, Benzyl-(4-orthobromophenyl-2-thiazolyl)-oxamate] | 2 | > 1000 mg/kg | – | – | – | – | – | –
– | CCOC(=O)C(=O)Nc1nc(-c2ccccc2)cs1 [Example 1, Ethyl-(4-phenyl-2-thiazolyl)-oxamate] | 1 | > 1000 mg/kg | 20% | insoluble | 25% | insoluble | 1 mg/kg | –
– | CCOC(=O)C(=O)Nc1nc(-c2ccc(Cl)cc2)cs1 [Example 2, Ethyl-(4-p-chlorophenyl-2-thiazolyl)-oxamate] | 0 | > 1000 mg/kg | – | insoluble | 4% | insoluble | – | 1%
– | Cc1cccc(-c2csc(NC(=O)C(=O)OCc3ccccc3)n2)c1 [Example 4, Benzyl-(4-metamethylphenyl-2-thiazolyl)-oxamate] | 1 | > 1000 mg/kg | – | – | – | – | – | –
– | CCOC(=O)C(=O)Nc1nc(-c2ccc(OC)cc2)cs1 [Example 3, Ethyl-(4-paramethoxyphenyl-2-thiazolyl)-oxamate] | 1 | > 1000 mg/kg | – | insoluble | 50% | insoluble | 2 mg/kg | 50%
15% | Nc1nc(-c2ccc(Cl)cc2)cs1 [4-parachlorophenyl-2-amino-thiazole] | – | – | – | – | – | insoluble | – | –

— patent publication US4246271A, “4-Phenyl-2-thiazolyl-oxamates useful in the treatment of asthma” (priority 1978, dated 1981)
